Measured values as given in patent US7501275B2, “Yeast transformation system” (The United States of America as represented by the …, priority 2004, dated 2009).

Tested on: Pichia stipitis UC7 NRRL Y-21448
Assay: Testing for sensitivity to Zeocin: plating on YPD pH 7.5 with Zeocin
Format: cell-based
Conditions: plated on YPD pH 7.5; Zeocin tested from 25 μg/ml to 500 μg/ml
Procedure: Pichia stipitis UC7 NRRL Y-21448 (2) is a ura3 auxotrophic mutant of P. stipitis CBS 6054 (ARS Culture Collection, NRRL USDA Peoria, Ill.). To test if Pichia stipitis UC7 is sensitive to Zeocin, UC7 was plated on YPD (Kaiser, Michaelis and Mitchell, 1994) pH 7.5 (1% yeast extract, 2% peptone, 2% dextrose, NaOH to pH 7.5) in the presence of Zeocin (Invitrogen) at a concentration of from 25 μg/ml to 500 μg/ml. Zeocin concentrations of 100 μg/ml or greater killed Pichia stipitis UC7.

## Cc1c(N)nc([C@H](CC(N)=O)NC[C@H](N)C(N)=O)nc1C(=O)N[C@H](C(=O)N[C@H](C)[C@@H](O)[C@H](C)C(=O)N[C@H](C(=O)NCCC1=N[C@@H](c2nc(C(=O)NCCCCN=C(N)N)cs2)CS1)[C@@H](C)O)[C@@H](O[C@@H]1O[C@@H](CO)[C@@H](O)[C@H](O)[C@@H]1O[C@H]1O[C@H](CO)[C@@H](O)[C@H](OC(N)=O)[C@@H]1O)c1cnc[nH]1 [Zeocin]
  Zeocin concentrations that killed Pichia stipitis UC7: ≥ 100 µg/mL
